The test system of one data set is serum lipids. Kind of data set: Lipid-lowering action in normolipemic rats. Type of data set: in vivo. The following applies: Rattus norvegicus, 72 h, 4 × 100 mg/kg oral over 3 days, male Wistar rats, vs controls, X ± Sx. As for the experimental part: Lipid-lowering action was tested on groups of 10 male Wistar rats (Ivanovas-Kisslegg), weight 200-220 g, normolipemic, or ordinary ration ("ssniff" complete feed).
The test compounds were taken up in an aqueous solution of 0.25% agar and 0.85% NaCl and administered orally. After administration of 4 × 100 mg/kg over a period of 3 days, the animals were bled by cardiac puncture after privation of […] for 4 hours.^1
^1 H. Enomoto and R. Zschocke, 3rd Int. Symp. Atheroscler, Berlin 1973, Abstr. 238.
Serum lipids were determined with a Technicon autoanalyzer. Total cholesterol (TC) was tested by the Liebermann-Burchard reaction. Quantitative analysis for triglycerides (TG) was performed by Eggstein and Kreutz's enzyme method (Klin. Wschr. 44, 262, 1966), modified for autoanalyzer.
Lipid lowering effect is expressed as percent lowering of total cholesterol and triglycerides compared to controls.

Data set [1] is described as follows: Oral tolerance (acute toxicity, LD50). The following applies: mouse, in vivo, mice, 8th day after treatment, Litchfield-Wilcoxon. The protocol:
After oral administration of the test compounds to mice of strain NMR-I, weight 15-20 g, the acute toxicity was determined. LD50 values were calculated following Litchfield-Wilcoxon (J. Pharmak. Exp. Therap. 96, 99, 1949) and pertain to the 8th day after treatment.

Setting [2] is: read-out: % Lowering TC (total cholesterol).
The mark [3] stands for this setting: read-out: % Lowering TG (triglycerides).

Molecules are shown by their SMILES. Read-outs that look alike come from different tables or passages of the source.

Regarding `O=C(O)CCc1ccc(OCC(O)COc2ccc(Cl)cc2)cc1` (stereo not shown) [Compound 56, 3-4'-(2-Carboxyathyl)-phenoxy!-1-(4'-chlorphenoxy)-propanol-(2)], the values for the inhibition in vivo at 100 mg/kg in the data set with serum lipids (setting [2]) and with serum lipids (setting [3]) were 48 ± 12.9% and 76.7 ± 7.7%, respectively.

Consider `CC(C)(C)c1ccc(NCC(O)COc2ccc(C(=O)O)cc2)cc1` (stereo not shown) [Compound 72, 3-(4'-Carboxyphenoxy)-1-(4'-t-butylphenylamino)-propanol-(2)], for which the inhibition in vivo at 100 mg/kg was 53.7 ± 10.4% in the data set on serum lipids (setting [2]) and 75.1 ± 9.9% in the data set on serum lipids (setting [3]).

For `O=C(O)c1ccc(OCC(O)COc2ccc(Cl)cc2)cc1` (stereo not shown) [Compound 53, 3-(4'-Carboxyphenoxy)-1-(4'-chlorphenoxy)-propanol-(2)], the figures for the inhibition in vivo at 100 mg/kg with serum lipids (setting [2]) and with serum lipids (setting [3]) were 40.5 ± 13.5% and 83.6 ± 15.5%, respectively.

In the case of `CC(C)(C)c1ccc(OCC(O)COc2ccc(C(=O)NO)cc2)cc1` (stereo not shown) [Compound 108], the values for the inhibition in vivo at 100 mg/kg in the data set on serum lipids (setting [2]) and in the data set with serum lipids (setting [3]) were 51.1 ± 8.3% and 77.8 ± 3.3%, respectively.

Turning to `CC(C)(C)c1ccc(SCC(O)COc2ccc(C(=O)O)cc2)cc1` (stereo not shown) [Compound 80, 3-(4'-Carboxyphenoxy)-1-(4'-t-butylphenylmercapto)-propanol-(2)], the inhibition in vivo at 100 mg/kg in the data set with serum lipids (setting [2]) worked out at 48.2 ± 11.6%; in the data set on serum lipids (setting [3]) it was 71.6 ± 18.6%.

As for `COC(=O)CCc1ccc(OCC(O)COc2ccc(Cl)cc2)cc1` (stereo not shown) [Compound 9], the inhibition in vivo at 100 mg/kg turned out to be 44.5 ± 17.5% with serum lipids (setting [2]) and 87.9 ± 11.9% with serum lipids (setting [3]).

With `COC(=O)c1ccc(OCC(COc2ccc(Cl)cc2)OC(=O)c2cccnc2)cc1` (stereo not shown) [Compound 95, 3-(4'-methoxycarbonylphenoxy)-1-(4'-chlorophenoxy)-propanol-(2) nicotinic acid ester], the inhibition in vivo at 100 mg/kg in the data set with serum lipids (setting [2]) was 38.3 ± 15.4%; in the data set on serum lipids (setting [3]), 63.8 ± 14.8%.

Consider `CC(C)(C)c1ccc(OCC(O)COc2ccc(C=CC(=O)O)cc2)cc1` (stereo not shown) [Compound 61, 3-4'-(2-Carboxyvinyl)-phenoxy!-1-(4'-t-butylphenoxy)-propanol-(2)], for which the inhibition in vivo at 100 mg/kg with serum lipids (setting [2]) came out at 44.9 ± 13.8%; in the data set on serum lipids (setting [3]), 81.2 ± 17.1%.

Take `COC(=O)C=Cc1ccc(OCC(O)CNc2ccc(Cl)cc2)cc1` (stereo not shown) [Compound 29]: the figures for the inhibition in vivo at 100 mg/kg in the data set with serum lipids (setting [2]) and in the data set on serum lipids (setting [3]) were 12.7 ± 12.5% and 62.3 ± 10.7%, respectively.

Turning to `CC(C)OC(=O)c1ccc(OCC(COc2ccc(Cl)cc2)OC(=O)c2cccnc2)cc1` (stereo not shown) [Compound 96], the inhibition in vivo at 100 mg/kg in the data set with serum lipids (setting [2]) came to 36.8 ± 14.3%; with serum lipids (setting [3]) it was 74 ± 4.8%.

`CCOC(=O)C(C)(C)Oc1ccc(Cl)cc1` [clofibrate, 2-(4'-chlorophenoxy)-2-methylpropionic acid ethyl ester, reference compound]: the median lethal dose (LD50) – broadly, the dose at which mortality reaches 50% – at 192 h in data set [1] came out at 1900 mg/kg. Moreover, the inhibition in vivo at 100 mg/kg was determined as 37.4 ± 13.6% in the data set with serum lipids (setting [2]) and 50.4 ± 20% in the data set with serum lipids (setting [3]).

`CN(C)CCOC(=O)c1ccc(OCC(O)COc2ccc(Cl)cc2)cc1` (stereo not shown) [Compound 83]: the inhibition in vivo at 100 mg/kg was found to be 46.2 ± 15.4% with serum lipids (setting [2]) and 72.5 ± 11.1% with serum lipids (setting [3]).

Consider `CCOC(=O)c1ccc(OCC(O)COc2ccc(Cl)cc2)cc1` (stereo not shown) [Compound 2], for which the results for the inhibition in vivo at 100 mg/kg in the data set on serum lipids (setting [2]) and in the data set with serum lipids (setting [3]) were 40.4 ± 24.3% and 60.2 ± 8.4%, respectively.

`O=C(O)C=Cc1ccc(OCC(O)COc2ccc(Cl)cc2)cc1` (stereo not shown) [Compound 55, 3-(4'-(2-carboxyvinyl)-phenoxy)-1-(4'-chlorophenoxy)propanol-(2)]: the inhibition in vivo at 100 mg/kg in the data set with serum lipids (setting [2]) was 45.4 ± 9.2%; with serum lipids (setting [3]), 49.9 ± 23.7%.

Take `COC(=O)c1ccc(NCC(O)COc2ccc(Cl)cc2)cc1` (stereo not shown) [Compound 30]: the inhibition in vivo at 100 mg/kg in the data set with serum lipids (setting [2]) came out at 12.1 ± 8.6%; in the data set on serum lipids (setting [3]) it was 69.3 ± 15.9%.

With `CC(C)(C)c1ccc(SCC(O)COc2ccc(C=CC(=O)O)cc2)cc1` (stereo not shown) [Compound 81, 3-4'-(2-Carboxyvinyl)-phenoxy!-1-(4'-t-butylphenylmercapto)-propanol-(2)], the inhibition in vivo at 100 mg/kg in the data set on serum lipids (setting [2]) came to 27.5 ± 12.7%; with serum lipids (setting [3]), 58.7 ± 14.8%.

`O=C(O)C=Cc1ccc(OCC(O)CSc2ccc(Cl)cc2)cc1` (stereo not shown) [Compound 77, 3-4'-(2-Carboxyvinyl)-phenoxy!-1-(4'-chlorphenylmercapto)-propanol-(2)]: the inhibition in vivo at 100 mg/kg in the data set with serum lipids (setting [2]) is 55.5 ± 12.7%; in the data set with serum lipids (setting [3]), 77.8 ± 12%.

`CC(C)(C)c1ccc(OCC(O)COc2ccc(C3OCCO3)cc2)cc1` (stereo not shown) [Compound 114]: the inhibition in vivo at 100 mg/kg with serum lipids (setting [2]) was determined as 67.9 ± 6.6%; in the data set with serum lipids (setting [3]), 91.6 ± 4.8%.

For the compound `O=C(OCc1cccnc1)c1ccc(OCC(O)COc2ccc(Cl)cc2)cc1` (stereo not shown) [Compound 85, 3-(4'-pyridyl-(3)-methoxycarbonylphenoxy)-1-(4'-chlorophenoxy)-propanol-(2)], the values for the inhibition in vivo at 100 mg/kg in the data set on serum lipids (setting [2]) and in the data set with serum lipids (setting [3]) were 52 ± 8.6% and 81.4 ± 5.9%, respectively.

Consider `O=C(O)c1ccc(NCC(O)COc2ccc(Cl)cc2)cc1` (stereo not shown) [Compound 68, 3-(4'-Carboxyphenylamino)-1-(4'-chlorphenoxy)-propanol-(2)], for which the inhibition in vivo at 100 mg/kg with serum lipids (setting [2]) is 15.2 ± 10%; with serum lipids (setting [3]), 54.1 ± 17%.

Regarding `C=CCOC(=O)c1ccc(OCC(O)COc2ccc(C(C)(C)C)cc2)cc1` (stereo not shown) [Compound 17], the inhibition in vivo at 100 mg/kg amounted to 55.8 ± 7.1% in the data set on serum lipids (setting [2]) and 83.4 ± 8.8% in the data set on serum lipids (setting [3]).

With `COC(=O)C=Cc1ccc(OCC(O)COc2ccc(Cl)cc2)cc1` (stereo not shown) [Compound 8, 3-(4'-(2-methoxycarbonylvinyl)-phenoxy)-1-(4'-chlorophenoxy)-propanol-(2)], the inhibition in vivo at 100 mg/kg in the data set with serum lipids (setting [2]) turned out to be 17.3 ± 26%; with serum lipids (setting [3]), 52.1 ± 7.7%.

For `COCCOC(=O)C=Cc1ccc(OCC(O)COc2ccc(C(C)(C)C)cc2)cc1` (stereo not shown) [Compound 51], the inhibition in vivo at 100 mg/kg was 47.8 ± 10.4% in the data set on serum lipids (setting [2]) and 77 ± 7.4% in the data set on serum lipids (setting [3]).

Turning to `COC(=O)c1ccc(OCC(O)COc2ccc(Cl)cc2)cc1` (stereo not shown) [Compound 1, 3-(4'-methoxycarbonylphenoxy)-1-(4'-chlorophenoxy)propanol-(2)], the inhibition in vivo at 100 mg/kg turned out to be 47.9 ± 10.2% with serum lipids (setting [2]) and 63.8 ± 17.2% with serum lipids (setting [3]).

Consider `CCOC(=O)C=Cc1ccc(OCC(O)COc2ccc(Cl)cc2)cc1` (stereo not shown) [Compound 10], for which the inhibition in vivo at 100 mg/kg was found to be 38.4 ± 5.6% in the data set with serum lipids (setting [2]) and 77.4 ± 8.5% in the data set with serum lipids (setting [3]).

In the case of `CC(C)OC(=O)c1cccc(OCC(O)COc2ccc(Cl)cc2)c1` (stereo not shown) [Compound 7], the inhibition in vivo at 100 mg/kg came to 32.1 ± 18.1% in the data set on serum lipids (setting [2]) and 73.2 ± 8.3% in the data set on serum lipids (setting [3]).

Take `COC(=O)c1ccc(OCC(O)CSc2ccc(C(C)(C)C)cc2)cc1` (stereo not shown) [Compound 43]: the inhibition in vivo at 100 mg/kg with serum lipids (setting [2]) stood at 37.2 ± 13.8%; in the data set on serum lipids (setting [3]) it was 71 ± 12.5%.

(Values after patent publication US4073935A, “Substituted propanol-(2)-derivatives and their nicotinic acid esters, and process for their preparation, and the use thereof as hypolipemic drugs” (Klinge Pharma GmbH & Co., priority 1974, dated 1978).)
